Reference: patent US9630922B2, “3-spiro-7-hydroxamic acid tetralins as HDAC inhibitors” (Forma Therapeutics, Inc., priority 2015, dated 2017)

Target: T1, HDAC6 (Homo sapiens, UniProt Q9UBN7)
T1 construct: Full length human recombinant HDAC6 protein was expressed in baculoviral system; made in house; host or cells: baculoviral system
T1 sequence (Q9UBN7 1-1215): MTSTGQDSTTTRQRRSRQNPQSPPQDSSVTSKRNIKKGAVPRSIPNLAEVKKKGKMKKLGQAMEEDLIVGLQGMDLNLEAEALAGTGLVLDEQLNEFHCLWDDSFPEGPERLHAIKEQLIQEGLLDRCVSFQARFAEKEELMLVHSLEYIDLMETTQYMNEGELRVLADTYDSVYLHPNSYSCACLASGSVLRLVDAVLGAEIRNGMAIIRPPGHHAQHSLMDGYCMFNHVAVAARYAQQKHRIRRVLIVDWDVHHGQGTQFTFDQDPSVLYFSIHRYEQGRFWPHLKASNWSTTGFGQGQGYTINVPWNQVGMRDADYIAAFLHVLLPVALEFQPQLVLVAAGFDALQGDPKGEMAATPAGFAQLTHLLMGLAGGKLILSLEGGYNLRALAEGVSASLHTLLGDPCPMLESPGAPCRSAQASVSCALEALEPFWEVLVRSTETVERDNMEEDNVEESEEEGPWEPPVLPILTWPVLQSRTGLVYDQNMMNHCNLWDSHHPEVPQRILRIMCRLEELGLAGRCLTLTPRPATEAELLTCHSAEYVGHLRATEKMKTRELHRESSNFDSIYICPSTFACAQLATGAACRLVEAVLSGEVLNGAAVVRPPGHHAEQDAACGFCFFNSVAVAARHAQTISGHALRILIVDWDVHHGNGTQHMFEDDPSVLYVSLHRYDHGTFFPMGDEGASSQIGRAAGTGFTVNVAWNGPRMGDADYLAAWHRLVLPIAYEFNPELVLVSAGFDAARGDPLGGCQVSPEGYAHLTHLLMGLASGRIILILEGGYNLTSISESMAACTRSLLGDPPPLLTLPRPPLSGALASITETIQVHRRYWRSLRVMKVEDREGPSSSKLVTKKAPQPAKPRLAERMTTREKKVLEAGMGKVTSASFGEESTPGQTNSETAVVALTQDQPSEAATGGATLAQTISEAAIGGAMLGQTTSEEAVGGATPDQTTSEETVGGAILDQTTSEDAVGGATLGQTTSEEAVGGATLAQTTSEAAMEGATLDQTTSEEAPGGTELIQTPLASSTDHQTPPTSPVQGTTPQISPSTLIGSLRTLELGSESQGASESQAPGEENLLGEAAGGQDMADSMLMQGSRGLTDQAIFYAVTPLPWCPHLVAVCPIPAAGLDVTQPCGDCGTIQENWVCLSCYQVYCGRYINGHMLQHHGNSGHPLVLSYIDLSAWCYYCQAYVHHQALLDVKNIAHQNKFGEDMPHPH
Assay: In vitro Histone Deacetylase Assay (enzymatic HDAC6 electrophoretic mobility shift assay)
Format: biochemical
Conditions: full length human recombinant HDAC6, 1 nM enzyme, 2 μM peptide substrate RHKK(Ac)-NH2, 25° C.; read-out: HDAC6 activity range
Outline: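 Full-length recombinant human HDAC6 (baculovirus-expressed, 1 nM) was incubated at 25 °C with 2 μM fluorescent RHKK(Ac)-NH2 peptide in HEPES pH 7.5, KCl, BSA, Triton X-100 and 1% DMSO, then SDS-quenched. Substrate and product were separated by microfluidic mobility shift, and IC50 came from 4-parameter fits of 12-point, 3-fold dilution curves.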

`O=C(NO)c1ccc2c(c1)CCC1(CCN(Cc3nc4ccccc4[nH]3)C1)C2` (centres unmarked) [Compound I-1, 1′-((1H-benzo[d]imidazol-2-yl)methyl)-N-hydroxy-3,4-dihydro-1H-spiro[naphthalene-2,3′-pyrrolidine]-6-carboxamide] showed an IC50 of no more than 100 nM.
With `COc1cc(N2CC[C@]3(CCc4cc(C(=O)NO)ccc4C3)C2=O)ccn1` [Compound I-149, (R)-N-hydroxy-1′-(2-methoxypyridin-4-yl)-2′-oxo-3,4-dihydro-1H-spiro[naphthalene-2,3′-pyrrolidine]-6-carboxamide] the IC50 was no more than 100 nM.
`COc1cccc(N2CC[C@@]3(CCc4cc(C(=O)NO)ccc4C3)C2=O)c1F` [Compound I-126, (2S)-1′-(2-fluoro-3-methoxyphenyl)-N-hydroxy-2′-oxo-3,4-dihydro-1H-spiro[naphthalene-2,3′-pyrrolidine]-6-carboxamide] was tested, and the IC50 was no more than 100 nM.
With `O=C(NO)c1ccc2c(c1)CC[C@]1(CCN(C3CCCC3)C1=O)C2` [Compound I-163, (R)-1′-cyclopentyl-N-hydroxy-2′-oxo-3,4-dihydro-1H-spiro[naphthalene-2,3′-pyrrolidine]-6-carboxamide] the IC50 was no more than 100 nM.
`O=C(NO)c1ccc2c(c1)CC[C@@]1(CCN(c3cncc(F)c3)C1=O)C2` [Compound I-153, (2S)-1′-(5-fluoropyridin-3-yl)-N-hydroxy-2′-oxo-3,4-dihydro-1H-spiro[naphthalene-2,3′-pyrrolidine]-6-carboxamide] was tested, and the IC50 was no more than 100 nM.
`CC#CCN1CC[C@@]2(CCc3cc(C(=O)NO)ccc3C2)C1=O` [Compound I-63, (S)-1′-(but-2-yn-1-yl)-N-hydroxy-2′-oxo-3,4-dihydro-1H-spiro[naphthalene-2,3′-pyrrolidine]-6-carboxamide] gave an IC50 of no more than 100 nM.
With `O=C(NO)c1ccc2c(c1)CC[C@@]1(CCN(c3cccc(F)c3F)C1=O)C2` [Compound I-156, (S)-1′-(2,3-difluorophenyl)-N-hydroxy-2′-oxo-3,4-dihydro-1H-spiro[naphthalene-2,3′-pyrrolidine]-6-carboxamide] the IC50 was no more than 100 nM.
`CCN1CCCC2(CCc3cc(C(=O)NO)ccc3C2)C1=O` (single isomer, unassigned) [Compound I-194] gave an IC50 of no more than 100 nM.
Molecule `CC(C)n1c(CN2CC[C@@]3(CCc4cc(C(=O)NO)ccc4C3)C2=O)nc2ccccc21` [Compound I-73, (S)-N-hydroxy-1′-((1-isopropyl-1H-benzo[d]imidazol-2-yl)methyl)-2′-oxo-3,4-dihydro-1H-spiro[naphthalene-2,3′-pyrrolidine]-6-carboxamide] has an IC50 of no more than 100 nM.
In the case of `CC(C)CN1CCCC2(CCc3cc(C(=O)NO)ccc3C2)C1=O` (single isomer, unassigned) [Compound I-189], the IC50 is reported as no more than 100 nM.
In the case of `O=C(NO)c1ccc2c(c1)CC[C@]1(CCN(Cc3ccccc3OC(F)(F)F)C1=O)C2` [Compound I-41, (R)-N-hydroxy-2′-oxo-1′-(2-(trifluoromethoxy)benzyl)-3,4-dihydro-1H-spiro[naphthalene-2,3′-pyrrolidine]-6-carboxamide], the IC50 is reported as no more than 100 nM.
`O=C(NO)c1ccc2c(c1)CC[C@@]1(CCN(Cc3ccccc3Cl)C1=O)C2` [Compound I-68, (S)-1′-(2-chlorobenzyl)-N-hydroxy-2′-oxo-3,4-dihydro-1H-spiro[naphthalene-2,3′-pyrrolidine]-6-carboxamide] gave an IC50 of 100 to 500 nM.
`O=C(NO)c1ccc2c(c1)CC[C@@]1(CCCN(C3CCC3)C1=O)C2` (single isomer, unassigned) [Compound I-197] was tested, and the IC50 was no more than 100 nM.
Work on `CC(C)CN1CC[C@@]2(CCc3cc(C(=O)NO)ccc3C2)C1=O` [Compound I-160, (S)-N-hydroxy-1′-isobutyl-2′-oxo-3,4-dihydro-1H-spiro[naphthalene-2,3′-pyrrolidine]-6-carboxamide] yielded an IC50 of 100 to 500 nM.
With `O=C(NO)c1ccc2c(c1)CC[C@@]1(CCN(Cc3ccccc3F)C1=O)C2` [Compound I-84, (S)-1′-(2-fluorobenzyl)-N-hydroxy-2′-oxo-3,4-dihydro-1H-spiro[naphthalene-2,3′-pyrrolidine]-6-carboxamide] the IC50 was no more than 100 nM.
Molecule `O=C(NO)c1ccc2c(c1)CC[C@@]1(CCN(c3cnc4ccccc4c3)C1=O)C2` [Compound I-102, (S)-N-hydroxy-2′-oxo-1′-(quinolin-3-yl)-3,4-dihydro-1H-spiro[naphthalene-2,3′-pyrrolidine]-6-carboxamide] has an IC50 of no more than 100 nM.
`O=C(NO)c1ccc2c(c1)CC[C@@]1(CCN(c3ccncc3)C1=O)C2` [Compound I-17, (S)-N-hydroxy-2′-oxo-1′-(pyridin-4-yl)-3,4-dihydro-1H-spiro[naphthalene-2,3′-pyrrolidine]-6-carboxamide] was tested, and the IC50 was no more than 100 nM.
`COc1ccc(F)c(N2CC[C@@]3(CCc4cc(C(=O)NO)ccc4C3)C2=O)c1` [Compound I-147, (2S)-1′-(2-fluoro-5-methoxyphenyl)-N-hydroxy-2′-oxo-3,4-dihydro-1H-spiro[naphthalene-2,3′-pyrrolidine]-6-carboxamide] showed an IC50 of no more than 100 nM.
`O=C(NO)c1ccc2c(c1)CCC1(CCN(Cc3ccc(Cl)c(Cl)c3)C1=O)C2` (centres unmarked) [Compound I-6, 1′-(3,4-dichlorobenzyl)-N-hydroxy-2′-oxo-3,4-dihydro-1H-spiro[naphthalene-2,3′-pyrrolidine]-6-carboxamide] gave an IC50 of no more than 100 nM.
In the case of `O=C(NO)c1ccc2c(c1)CC[C@@]1(CCN(c3ccc(F)cc3)C1=O)C2` [Compound I-154, (S)-1′-(4-fluorophenyl)-N-hydroxy-2′-oxo-3,4-dihydro-1H-spiro[naphthalene-2,3′-pyrrolidine]-6-carboxamide], the IC50 is reported as no more than 100 nM.
`O=C(NO)c1ccc2c(c1)CC[C@]1(CCN(c3cccc(F)c3)C1=O)C2` [Compound I-113, (R)-1′-(3-fluorophenyl)-N-hydroxy-2′-oxo-3,4-dihydro-1H-spiro[naphthalene-2,3′-pyrrolidine]-6-carboxamide] showed an IC50 of no more than 100 nM.
`Cn1c(CN2CC[C@]3(CCc4cc(C(=O)NO)ccc4C3)C2=O)nc2ccccc21` [Compound I-46, (R)-N-hydroxy-1′-((1-methyl-1H-benzo[d]imidazol-2-yl)methyl)-2′-oxo-3,4-dihydro-1H-spiro[naphthalene-2,3′-pyrrolidine]-6-carboxamide] gave an IC50 of no more than 100 nM.
`O=C(NO)c1ccc2c(c1)CC[C@]1(CCN(C3CCC3)C1=O)C2` (single isomer, unassigned) [Compound I-171] gave an IC50 of no more than 100 nM.
`CN1CCC[C@]2(CCc3cc(C(=O)NO)ccc3C2)C1=O` (single isomer, unassigned) [Compound I-180] was tested, and the IC50 was no more than 100 nM.
`O=C(NO)c1ccc2c(c1)CCC1(CCN(c3ccccc3)C1=O)S2(=O)=O` (centres unmarked) [Compound I-238, N-hydroxy-2-oxo-1-phenylspiro[pyrrolidine-3,2′-thiochromane]-6′-carboxamide 1′,1′-dioxide] showed an IC50 of 100 to 500 nM.
In the case of `COc1ccc(CCN2CCC3(CCc4cc(C(=O)NO)ccc4C3)C2=O)cc1` (centres unmarked) [Compound I-4, N-hydroxy-1′-(4-methoxyphenethyl)-2′-oxo-3,4-dihydro-1H-spiro[naphthalene-2,3′-pyrrolidine]-6-carboxamide], the IC50 is reported as no more than 100 nM.
Work on `O=C(NO)c1ccc2c(c1)CC[C@@]1(CCCN(CC3CCC3)C1=O)C2` (single isomer, unassigned) [Compound I-185] yielded an IC50 of no more than 100 nM.
With `O=C(NO)c1ccc2c(c1)CCC1(CCNC1=O)O2` (centres unmarked) [Compound I-236, N-hydroxy-2′-oxospiro[chromane-2,3′-pyrrolidine]-6-carboxamide] the IC50 was 100 to 500 nM.
`O=C(NO)c1ccc2c(c1)CC[C@]1(CC(=O)N(c3ccccc3)C1)C2` (single isomer, unassigned) [Compound I-203] showed an IC50 of no more than 100 nM.
For `O=C(NO)c1ccc2c(c1)CCC1(CC(=O)N(CC3COC3)C1)C2` (single isomer, unassigned) [Compound I-217], the IC50 was 100 to 500 nM.
Molecule `O=C(NO)c1ccc2c(c1)CCC1(CCCN(CC3COC3)C1=O)C2` (single isomer, unassigned) [Compound I-195] has an IC50 of no more than 100 nM.
`Cc1ncccc1N1CC[C@@]2(CCc3cc(C(=O)NO)ccc3C2)C1=O` [Compound I-132, (S)-N-hydroxy-1′-(2-methylpyridin-3-yl)-2′-oxo-3,4-dihydro-1H-spiro[naphthalene-2,3′-pyrrolidine]-6-carboxamide] was tested, and the IC50 was no more than 100 nM.
